Data reported in EPA's ToxValDB 9.5.

What was measured:
[1] = system: Rattus norvegicus; conditions: short-term, duration: 28 days, oral, gavage, M, Sprague-Dawley
[2] = system: Rattus norvegicus
[3] = short-term, duration: 14 days, oral, gavage, M, Sprague-Dawley, Body Weight: Decreases in body weight at 3 and 5 mg/kg/day (18 and 39%)
[4] = short-term, duration: 14 days, oral, gavage, M, Sprague-Dawley, Immunotoxicological: Decreased relative spleen weight and increases in cytokine levels
[5] = short-term, duration: 14 days, oral, gavage, M, Sprague-Dawley, Other Noncancer (Glucose: Increased serum glucose levels (1.11-fold at 1 mg/kg/day and 1.16-fold at 5 mg/kg/day)
[6] = short-term, duration: 14 days, oral, gavage, M, Sprague-Dawley, Reproductive: 85.4% decrease in serum testosterone and […] increase in estradiol levels at 5 mg/kg/day / atrophy of seminiferous tubule …
[7] = short-term, duration: 14 days, oral, gavage, M, Sprague-Dawley, Reproductive: Large vacuoles between testicular Sertoli cells and spermatogonia

Compound `O=C(O)C(F)(F)C(F)(F)C(F)(F)C(F)(F)C(F)(F)C(F)(F)C(F)(F)C(F)(F)F` [Perfluorononanoic acid] has an LOEL ([1]; Clinical chemistry_Total bile acids) of 0.625 mg/kg-day, an LOEL ([1]; Clinical chemistry_Total bilirubin) of 1.25 mg/kg-day and an LOEL ([1]; Clinical chemistry_Total protein) of 0.625 mg/kg-day. For the same compound, the LOEL ([1]; Clinical chemistry_Total thyroxine) was 0.625 mg/kg-day, the LOEL ([1]; Clinical chemistry_Total triiodothyronine) was 2.5 mg/kg-day and the LOEL ([1]; Clinical chemistry_Triglycerides) was 0.625 mg/kg-day. The LOEL ([1]; Gene expression_Acox1) was 0.625 mg/kg-day, the LOEL ([1]; Gene expression_Acyl-CoA oxidase) was 0.625 mg/kg-day and the LOEL ([1]; Gene expression_Cyp2b1) was 0.625 mg/kg-day. It also gave an LOEL ([1]; Gene expression_Cyp2b2) of 0.625 mg/kg-day, an LOEL ([1]; Gene expression_Cyp4a1) of 0.625 mg/kg-day and an NOEL ([1]; Hematology_Erythrocytes) of 10 mg/kg-day. For the same compound, the NOEL ([1]; Hematology_Hematocrit) was 10 mg/kg-day, the NOEL ([1]; Hematology_Hemoglobin) was 10 mg/kg-day and the LOEL ([1]; Hematology_Mean corpuscular hemoglobin concentration) was 2.5 mg/kg-day. For the same compound, the LOEL ([1]; Hematology_Mean corpuscular volume) was 2.5 mg/kg-day, the NOEL ([1]; Hematology_Platelets) was 10 mg/kg-day and the LOEL ([1]; Hematology_Reticulocytes) was 0.625 mg/kg-day. The LOEL ([1]; Nonneoplastic effects_Bone marrow - Hypocellularity) was 2.5 mg/kg-day, the LOEL ([1]; Nonneoplastic effects_Epididymis - Duct, exfoliated germ cell) was 2.5 mg/kg-day and the LOEL ([1]; Nonneoplastic effects_Epididymis - Epithelium, apoptosis) was 5 mg/kg-day. It also gave an LOEL ([1]; Nonneoplastic effects_Epididymis - Hypospermia) of 5 mg/kg-day, an LOEL ([1]; Nonneoplastic effects_Forestomach - Epithelium, hyperplasia) of 2.5 mg/kg-day and an LOEL ([1]; Nonneoplastic effects_Forestomach - Inflammation, chronic active) of 2.5 mg/kg-day. The NOEL ([1]; Nonneoplastic effects_Kidney - Nephropathy, chronic progressive) was 10 mg/kg-day, the LOEL ([1]; Nonneoplastic effects_Liver - Hepatocyte, Necrosis) was 2.5 mg/kg-day and the LOEL ([1]; Nonneoplastic effects_Liver - Hepatocyte, cytoplasmic alteration) was 0.625 mg/kg-day. For the same compound, the LOEL ([1]; Nonneoplastic effects_Liver - Hepatocyte, hypertrophy) was 0.625 mg/kg-day, the LOEL ([1]; Nonneoplastic effects_Liver - Hepatocyte, vacuolization cytoplasmic) was 1.25 mg/kg-day and the LOEL ([1]; Nonneoplastic effects_Lymph nodes - Mandibular, atrophy) was 5 mg/kg-day. It also gave an LOEL ([1]; Nonneoplastic effects_Lymph nodes - Mesenteric, atrophy) of 5 mg/kg-day, an NOEL ([1]; Nonneoplastic effects_Nose - Olfactory epithelium, degeneration) of 10 mg/kg-day and an NOEL ([1]; Nonneoplastic effects_Nose - Olfactory epithelium, hyperplasia) of 10 mg/kg-day. It also gave an NOEL ([1]; Nonneoplastic effects_Nose - Olfactory epithelium, inflammation, suppurative) of 10 mg/kg-day, an NOEL ([1]; Nonneoplastic effects_Nose - Respiratory epithelium, hyperplasia) of 10 mg/kg-day and an NOEL ([1]; Nonneoplastic effects_Nose - Respiratory epithelium, inflammation, chronic active) of 10 mg/kg-day. For the same compound, the LOEL ([1]; Nonneoplastic effects_Spleen - Atrophy) was 5 mg/kg-day, the NOEL ([1]; Nonneoplastic effects_Spleen - Extramedullary hematopoiesis, increased) was 10 mg/kg-day and the LOEL ([1]; Nonneoplastic effects_Testes - Germinal epithelium, degeneration) was 2.5 mg/kg-day. The LOEL ([1]; Nonneoplastic effects_Testes - Interstitial cell, atrophy) was 2.5 mg/kg-day, the LOEL ([1]; Nonneoplastic effects_Testes - Seminiferous tubule, spermatid retention) was 2.5 mg/kg-day and the LOEL ([1]; Nonneoplastic effects_Thymus - Atrophy) was 2.5 mg/kg-day. The NOEL ([1]; Nonneoplastic effects_Thymus - Lymphocyte, apoptosis) was 10 mg/kg-day, the NOEL ([1]; Nonneoplastic effects_Thyroid gland - Follicular cell hypertrophy) was 10 mg/kg-day and the LOEL ([1]; Organ weights_Liver - Absolute) was 0.625 mg/kg-day. The LOEL ([1]; Organ weights_Liver - Relative) was 0.625 mg/kg-day, the LOEL ([1]; Organ weights_R. adrenal gland - Absolute) was 0.625 mg/kg-day and the LOEL ([1]; Organ weights_R. adrenal gland - Relative) was 2.5 mg/kg-day. It also gave an LOEL ([1]; Organ weights_R. kidney - Absolute) of 2.5 mg/kg-day, an LOEL ([1]; Organ weights_R. kidney - Relative) of 0.625 mg/kg-day and an LOEL ([1]; Organ weights_R. testis - Absolute) of 2.5 mg/kg-day. The LOEL ([1]; Organ weights_Spleen - Absolute) was 1.25 mg/kg-day, the LOEL ([1]; Organ weights_Spleen - Relative) was 1.25 mg/kg-day and the LOEL ([1]; Organ weights_Thymus - Absolute) was 1.25 mg/kg-day. It also gave an LOEL ([1]; Organ weights_Thymus - Relative) of 1.25 mg/kg-day, an LOEL ([1]; Organ weights_Thyroid gland - Absolute) of 2.5 mg/kg-day and an LOEL ([1]; Organ weights_Thyroid gland - Relative) of 2.5 mg/kg-day. It also gave an LOEL ([1]; Reproductive toxicity_Altered sperm parameters) of 1.25 mg/kg-day, an LOEL ([1]; body weight) of 1.25 mg/kg-day and an NOAEL ([2]; acute, duration: 4 hours, inhalation, nose only, M, CD, Body Weight: Reduced 18% 5 days after exposure + Hepatic: 28% increase in absolute liver weight 5 days after exposure to ?67 mg/m3 + …) of 67 mg/m3. The LOAEL ([2]; acute, duration: 4 hours, inhalation, nose only, M, CD, Body Weight: Reduced 18% 5 days after exposure + Respiratory: Lung noise / labored breathing during and after exposure) was 590 mg/m3, the LOAEL ([2]; acute, duration: 4 hours, inhalation, nose only, M, CD, Death: 14-day LC50) was 820 mg/m3 and the LOAEL ([2]; developmental, duration: 20 days, oral, gavage, M/F, Sprague-Dawley, Body Weight: Reduced maternal body weight / approximately 33% on GD 7 and 10% on GD 20 + Developmental: Decreased birth weight in female …) was 5 mg/kg-day. For the same compound, the LOAEL [2, 3] was 3 mg/kg-day, the NOAEL [2, 3] was 1 mg/kg-day and the NOAEL ([2]; short-term, duration: 14 days, oral, gavage, M, Sprague-Dawley, Hepatic: Decreased HDL levels at ?1 mg/kg/day) was 5 mg/kg-day. The NOAEL ([2]; short-term, duration: 14 days, oral, gavage, M, Sprague-Dawley, Hepatic: Hepatocellular vacuolation and lipid accumulation at 5 mg/kg/day) was 5 mg/kg-day, the LOAEL ([2]; short-term, duration: 14 days, oral, gavage, M, Sprague-Dawley, Immunotoxicological: 24% increase in relative thymus weight at 1 mg/kg/day / 20% decrease in thymus weight at 3 or 5 mg/kg/day, increases …) was 1 mg/kg-day and the LOAEL [2, 4] was 5 mg/kg-day. For the same compound, the NOAEL [2, 4] was 3 mg/kg-day, the LOAEL [2, 5] was 1 mg/kg-day and the NOAEL [2, 5] was 0.2 mg/kg-day. For the same compound, the LOAEL [2, 6] was 5 mg/kg-day, the NOAEL [2, 6] was 3 mg/kg-day and the LOAEL [2, 7] was 5 mg/kg-day. For the same compound, the NOAEL [2, 7] was 3 mg/kg-day and the LOAEL ([2]; short-term, duration: 14 days, oral, gavage, Wistar, Body Weight: Decreased body weight / magnitude of effect was not reported + Endocrine: Decreased androstenedione and testosterone …) was 5 mg/kg-day.
